In patent US8524773B2, “Utilization of dialkylfumarates” (Biogen Idec International GmbH, priority 1998, dated 2013):
Where a name gives a salt, the structure may show the parent alone.

What was measured:
haemagglutination [1] = assay: in vivo haemagglutination; conditions: compared with cyclosporine
haemagglutination [2] = assay: in vitro haemagglutination; conditions: compared with cyclosporine
Ehrlich ascites tumour = conditions: mice; cited from earlier work
isolated monocytes = assay: endotoxin-stimulated TNF-α secretion in isolated monocytes; type: cell-based, human
[3] = system: human mononuclear cells of periphere blood (PBMC cells); assay: endotoxin-stimulated TNF-α secretion in PBMC cells; type: cell-based

Row | Compound | effect on in vivo haemagglutination (haemagglutination [1]) | effect on in vitro haemagglutination (haemagglutination [2]) | growth of the Ehrlich ascites tumour (Ehrlich ascites tumour) | endotoxin-stimulated TNF-α secretion (isolated monocytes) | endotoxin-stimulated TNF-α secretion [3]
1 | O=C(O)/C=C/C(=O)O [fumaric acid] | comparable to that of cyclosporine | comparable to that of cyclosporine | inhibits the growth |  | 
2 | COC(=O)/C=C/C(=O)O [methyl hydrogen fumarate] |  |  |  | initially increases | initially increases
